From patent US20220000841A1, “INHIBITORS OF METALLO-BETA-LACTAMASES” (CENTRE NATIONAL DE LA RECHERCHE SCIENTIFIQUE, priority 2018, published 2022)
Read-outs that look alike come from different tables or passages of the source.

Key:
Type in all cases: biochemical
VIM-1 = VIM-1 (Pseudomonas aeruginosa, UniProt A0A0F7KYQ8); test: Enzymatic assay for determination of inhibition constants, reporter substrate method, purified VIM-1; conditions: for Ki: isolated MBL, competitive inhibition model;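 as to all read-outs here: initial hydrolysis rates of a reporter β-lactam (imipenem, meropenem, cefotaxime or nitrocefin) followed by absorbance change, purified enzyme at 1–70 nM in 50 mM HEPES pH 7.5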
Experimental: (§1) The reaction rate was measured as the variation of absorbance observed upon substrate hydrolysis in a UV-Vis spectrophotometer or microplate reader at a wavelength of 300 nm (imipenem, meropenem), 260 nm (cefotaxime) or 482 nm (nitrocefin) in 50 mM HEPES buffer (pH 7.5) and in the presence of a purified MBL enzyme (such as VIM-1, VIM-2, VIM-4, NDM-1 and IMP-1, at a final concentration ranging 1-70 nM).
(§2) The inhibition constants (Ki) were determined on the basis of a model of competitive inhibition by analyzing the dependence of the ratio v0/vi (v0, hydrolysis velocity in the absence of inhibitor; vi, hydrolysis velocity in the presence of inhibitor) as a function of [I] as already described [Docquier J. D., Lamotte-Brasseur J., Galleni M., Amicosante G., Frère J. M., Rossolini G. M. (2003) J. Antimicrob. […] The slope of the plot of v0/vi vs [I], which corresponds to Km^S/(Km^S+[S])Ki (where Km^S is the Km value of the reporter substrate and [S] its concentration in the reaction mixture) and allowed the calculation of the Ki value. Alternatively, a Dixon plot analysis was carried out, by measuring the initial hydrolysis rates in the presence of variable concentrations of inhibitor and substrate.

VIM-2 = VIM-2 (Escherichia coli, UniProt Q5U7L7); test: Enzymatic assay for determination of inhibition constants, reporter substrate method, purified VIM-2;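 also: purified VIM-2 hydrolysing a reporter substrate (imipenem, meropenem, cefotaxime or nitrocefin), reaction rate read as absorbance change, HEPES 50 mM at pH 7.5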
Experimental: as §1, §2

VIM-4 = VIM-4 (Pseudomonas aeruginosa, UniProt Q8KRJ3); test: Enzymatic assay for determination of inhibition constants, reporter substrate method, purified VIM-4; conditions: at 100 μM (maximal tested concentration);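 also: purified VIM-4 (1-70 nM) in 50 mM HEPES pH 7.5, reporter substrate hydrolysis rate tracked by absorbance change (nitrocefin 482 nm, imipenem or meropenem 300 nm, cefotaxime 260 nm)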
Experimental: as §1, §2

NDM-1 = NDM-1 (Klebsiella pneumoniae, UniProt C7C422); test: Enzymatic assay for determination of inhibition constants, reporter substrate method, purified NDM-1; conditions: for Ki: isolated MBL, competitive inhibition model;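 as to all read-outs here: purified enzyme activity followed as absorbance change from reporter substrate hydrolysis on a UV-Vis spectrophotometer or plate reader, 50 mM HEPES pH 7.5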
Sequence of NDM-1 (C7C422 29-270, looked up, species assumed): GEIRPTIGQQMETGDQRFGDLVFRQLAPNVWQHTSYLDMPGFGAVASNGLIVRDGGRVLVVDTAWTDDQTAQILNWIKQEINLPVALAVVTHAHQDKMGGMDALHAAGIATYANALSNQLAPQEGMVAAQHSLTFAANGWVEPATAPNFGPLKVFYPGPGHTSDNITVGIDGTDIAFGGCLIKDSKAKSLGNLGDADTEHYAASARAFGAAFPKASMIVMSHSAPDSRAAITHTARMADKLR

IMP-1 = IMP-1 (Serratia marcescens, UniProt P52699); test: Enzymatic assay for determination of inhibition constants, reporter substrate method, purified IMP-1; conditions: for Ki: isolated MBL, competitive inhibition model; for % inhibition IMP-1: at 200 μM (maximal tested concentration);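 as to all read-outs here: purified IMP-1 (1-70 nM) hydrolysing a reporter substrate, initial rates followed as absorbance change at 260, 300 or 482 nm in 50 mM HEPES pH 7.5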
Sequence of IMP-1 (P52699 19-246, looked up, species assumed): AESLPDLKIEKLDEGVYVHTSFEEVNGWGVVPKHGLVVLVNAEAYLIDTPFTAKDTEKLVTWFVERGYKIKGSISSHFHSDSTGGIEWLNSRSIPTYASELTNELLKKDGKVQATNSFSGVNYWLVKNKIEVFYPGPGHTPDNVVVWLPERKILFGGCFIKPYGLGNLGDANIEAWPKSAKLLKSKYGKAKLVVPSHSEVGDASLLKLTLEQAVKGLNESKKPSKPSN
Experimental: as §1, §2

[1] = at 100 μM (maximal tested concentration)
[2] = isolated MBL, competitive inhibition model, read-out: Ki VIM-2
[3] = as listed in Table 2, read-out: Ki on VIM-2
[4] = at 200 μM (maximal tested concentration)

Ki (VIM-1) [µM] | Ki (VIM-2; [2]) [µM] | Compound | % inhibition VIM-2 (VIM-2; [1]) [% at 100 μM] | Ki (NDM-1) [µM] | Ki (IMP-1) [µM] | also measured
– | – | S=c1[nH]nc(-c2ccccc2)n1CCCSc1ccccc1 [Compound 79, 5-Phenyl-4-[3-(phenylthio)propyl]-2,4-dihydro-1,2,4-triazole-3-thione] | 72 | > 100 | > 100 | % inhibition VIM-1 (VIM-1; [1]): 82% at 100 μM; % inhibition VIM-4 (VIM-4): 71% at 100 μM
< 1 | 1 to 10 | COc1ccc(O)c(-c2n[nH]c(=S)n2Cc2ccccc2)c1 [Compound 7, 4-benzyl-3-(2-hydroxy-5-methoxyphenyl)-4,5-dihydro-1H-1,2,4-triazole-5-thione] | – | > 100 | > 100 | –
> 100 | 1 to 10 | O=C(O)CCCn1c(-c2ccccc2)n[nH]c1=S [Compound 2, 4-(3-phenyl-5-sulfanylidene-4,5-dihydro-1H-1,2,4-triazol-4-yl)butanoic acid] | – | > 100 | > 100 | Ki (VIM-2; [3]): 1 to 10 µM
– | – | O=C(O)CSCCn1c(-c2ccccc2)n[nH]c1=S [Compound 65, [2-(3-Phenyl-5-thioxo-1,4-dihydro-1,2,4-triazol-4-yl)ethylthio]acetic acid] | 90 | > 100 | > 100 | –
– | – | O=C(O)c1ccc(Cn2c(-c3ccccc3)n[nH]c2=S)cc1 [Compound 55, p-[(3-Phenyl-5-thioxo-1,4-dihydro-1,2,4-triazol-4-yl)methyl]benzoic acid] | – | > 100 | > 100 | % inhibition VIM-2 (VIM-2; [4]): 80% at 200 μM; % inhibition VIM-4 (VIM-4): 80% at 100 μM
– | – | O=C(O)c1cccc(Cn2c(-c3ccccc3)n[nH]c2=S)c1 [Compound 52, m-[(3-Phenyl-5-thioxo-1,4-dihydro-1,2,4-triazol-4-yl)methyl]benzoic acid] | 84 | > 100 | > 100 | –
> 100 | > 100 | O=C(O)CC(Cn1c(-c2ccccc2)n[nH]c1=S)c1ccccc1 (stereo not shown) [Compound 46, 3-Phenyl-4-(3-phenyl-5-thioxo-1,4-dihydro-1,2,4-triazol-4-yl)butyric acid] | – | > 100 | > 100 | –
1 to 10 | 1 to 10 | COc1ccc(O)c(-c2n[nH]c(=S)n2CCc2ccccc2)c1 [Compound 10, 3-(2-hydroxy-5-methoxyphenyl)-4-(2-phenylethyl)-4,5-dihydro-1H-1,2,4-triazole-5-thione] | – | 1 to 10 | 10 to 100 | –
– | – | O=C(O)c1ccccc1CCn1c(-c2ccc[nH]2)n[nH]c1=S [Compound 57, o-{2-[3-(1H-Pyrrol-2-yl)-5-thioxo-1,4-dihydro-1,2,4-triazol-4-yl]ethyl}benzoic acid] | – | – | > 100 | % inhibition VIM-2 (VIM-2; [4]): 80% at 200 μM; % inhibition VIM-4 (VIM-4): 65% at 100 μM; % inhibition NDM-1 (NDM-1; [4]): 60% at 200 μM
– | > 100 | Sc1nnc(-c2ccccc2)n1Cc1ccccc1 [Compound 9, 4-benzyl-3-phenyl-4,5-dihydro-1H-1,2,4-triazole-5-thione] | – | > 100 | 1 to 10 | –
– | – | O=C(O)CCCCCCCn1c(-c2ccccc2)n[nH]c1=S [Compound 59, 8-(3-Phenyl-5-thioxo-1,4-dihydro-1,2,4-triazol-4-yl)octanoic acid] | 90 | > 100 | > 100 | –
– | – | Cc1ccccc1-c1n[nH]c(=S)n1CCc1ccccc1 [Compound 6, 3-(2-methylphenyl)-4-(2-phenylethyl)-4,5-dihydro-1H-1,2,4-triazole-5-thione] | – | > 100 | – | % inhibition VIM-1 (VIM-1; [4]): 60% at 200 μM; % inhibition VIM-2 (VIM-2; [4]): 60% at 200 μM; % inhibition VIM-4 (VIM-4): 50% at 100 μM; % inhibition IMP-1 (IMP-1): 80% at 200 μM
– | – | O=C(O)c1cc(O)ccc1CCn1c(-c2ccccc2)n[nH]c1=S [Compound 53, 5-Hydroxy-2-[2-(3-phenyl-5-thioxo-1,4-dihydro-1,2,4-triazol-4-yl)ethyl]benzoic acid] | 90 | > 100 | > 100 | –
– | – | O=C(O)C(SCCn1c(-c2ccccc2)n[nH]c1=S)c1ccccc1 (stereo not shown) [Compound 60, Phenyl[2-(3-phenyl-5-thioxo-1,4-dihydro-1,2,4-triazol-4-yl)ethylthio]acetic acid] | 96 | > 100 | > 100 | –
> 100 | > 100 | Oc1ccc(CCn2c(-c3ccccc3)n[nH]c2=S)c(O)c1 [Compound 41, 4-[2-(2,4-Dihydroxyphenyl)ethyl]-5-phenyl-1,2,4-triazole-3-thione] | – | 10 to 100 | 10 to 100 | –
> 100 | < 1 | O=C(O)CCCn1c(-c2cccc(-c3ccccc3)c2)n[nH]c1=S [Compound 38, 5-(3-Biphenyl)-4-[3-carboxypropanyl]-1,2,4-triazole-3-thione] | – | > 100 | > 100 | –
– | – | O=C(O)c1ccccc1CCn1c(-c2ccsc2)n[nH]c1=S [Compound 58, o-{2-[3-(3-Thienyl)-5-thioxo-1,4-dihydro-1,2,4-triazol-4-yl]ethyl}benzoic acid] | 85 | > 100 | > 100 | –
– | – | S=c1[nH]nc(-c2ccccc2)n1[C@@H]1C[C@H]1c1ccccc1 [Compound 20, 3-phenyl-4-[(1R,2S)-2-phenylcyclopropyl]-4,5-dihydro-1H-1,2,4-triazole-5-thione] | – | 10 to 100 | > 100 | % inhibition VIM-2 (VIM-2; [4]): 70% at 200 μM
> 100 | 1 to 10 | O=C(O)c1ccccc1CNn1c(-c2ccccc2)n[nH]c1=S [Compound 5, 2-{[(3-phenyl-5-sulfanylidene-4,5-dihydro-1H-1,2,4-triazol-4-yl)amino]methyl}benzoic acid] | – | > 100 | > 100 | Ki (VIM-2; [3]): 1 to 10 µM
> 100 | > 100 | Oc1ccc(CCn2c(-c3ccccc3-c3ccccc3)n[nH]c2=S)c(O)c1 [Compound 43, 5-(2-Biphenyl)-4-[2-(2,4-dihydroxyphenyl)ethyl]-1,2,4-triazole-3-thione] | – | 10 to 100 | > 100 | –
– | – | O=C(O)c1ccccc1CNn1c(-c2cccc(-c3ccccc3)c2)n[nH]c1=S [Compound 51, o-{[3-(3-Biphenylyl)-5-thioxo-1,4-dihydro-1,2,4-triazol-4-ylamino]methyl}benzoic acid] | 75 | > 100 | > 100 | –
> 100 | < 1 | O=C(O)c1ccccc1CCn1c(-c2ccc(OCc3ccccc3)cc2)n[nH]c1=S [Compound 40, 5-(4-Benzyloxyphenyl)-4-[2-(2-carboxyphenyl)ethyl]-1,2,4-triazole-3-thione] | – | > 100 | > 100 | –
– | – | Cc1ccccc1-c1n[nH]c(=S)n1/N=C/c1ccccc1C(=O)O [II, reference compound] | – | – | – | Ki (VIM-2; [3]): 1 to 10 µM
– | – | Nc1ccc(CCn2c(-c3ccccc3)n[nH]c2=S)c(C(=O)O)c1 [Compound 61, 5-Amino-2-[2-(3-phenyl-5-thioxo-1,4-dihydro-1,2,4-triazol-4-yl)ethyl]benzoic acid] | 75 | > 100 | > 100 | –
– | – | O=C(O)c1ccccc1CCn1c(-c2ccc3ncccc3c2)n[nH]c1=S [Compound 56, 2-{2-[3-(Quinolin-6-yl)-5-sulfanylidene-4,5-dihydro-1H-1,2,4-triazol-4-yl]ethyl}benzoic acid] | 85 | > 100 | > 100 | –

Compound | Ki (VIM-1) [µM] | Ki (VIM-2; [2]) [µM] | % inhibition VIM-2 (VIM-2; [1]) [% at 100 μM] | Ki (NDM-1) [µM] | Ki (IMP-1) [µM] | also measured
S=c1[nH]nc(-c2ccccc2)n1CCc1ccccc1 [Compound 11, 3-phenyl-4-(2-phenylethyl)-4,5-dihydro-1H-1,2,4-triazole-5-thione] | – | > 100 | – | > 100 | 1 to 10 | % inhibition VIM-1 (VIM-1; [4]): 75% at 200 μM; % inhibition VIM-4 (VIM-4): 75% at 100 μM
Cn1cccc1-c1n[nH]c(=S)n1CCCC(=O)O [Compound 48, 4-[3-(1-Methyl-1H-pyrrol-2-yl)-5-thioxo-1,4-dihydro-1,2,4-triazol-4-yl]butyric acid] | – | > 100 | – | > 100 | > 100 | % inhibition VIM-4 (VIM-4): 75% at 100 μM
S=c1[nH]nc(-c2ccccc2)n1CCc1ccc(OCc2ccccc2)cc1 [Compound 54, 4-[4-(Benzyloxy)phenylethyl]-5-phenyl-1,2,4-triazole-3-thione] | – | 10 to 100 | – | > 100 | – | % inhibition IMP-1 (IMP-1): 60% at 200 μM
Oc1ccc(CCn2c(-c3ccccc3)n[nH]c2=S)cc1 [Compound 31, 4-[2-(4-hydroxyphenyl)ethyl]-3-phenyl-4,5-dihydro-1H-1,2,4-triazole-5-thione] | 1 to 10 | 1 to 10 | – | 10 to 100 | 10 to 100 | % inhibition VIM-4 (VIM-4): 70% at 100 μM
Cn1cccc1-c1n[nH]c(=S)n1CCc1ccccc1C(=O)O [Compound 44] | – | < 1 | – | > 100 | > 100 | % inhibition VIM-4 (VIM-4): 80% at 100 μM
O=C(O)c1ccccc1CCn1c(-c2ccc3ccccc3n2)n[nH]c1=S [Compound 36, 2-{2-[3-(Quinolin-2-yl)-5-sulfanylidene-4,5-dihydro-1H-1,2,4-triazol-4-yl]ethyl}benzoic acid] | – | > 100 | – | > 100 | > 100 | % inhibition VIM-4 (VIM-4): 85% at 100 μM
S=c1[nH]nc(-c2ccccc2)n1CCCc1ccccc1 [Compound 8, 3-phenyl-4-(3-phenylpropyl)-4,5-dihydro-1H-1,2,4-triazole-5-thione] | – | > 100 | – | > 100 | – | % inhibition IMP-1 (IMP-1): 70% at 200 μM
